Source: paper PMC12881670, “Investigation into ligand selectivity and bias at the formyl peptide receptor family” (The Journal of Pharmacology and Experimental Therapeutics, 2025)
Where two headings read alike, the source gives them in different places. Where a SMILES comes first, the peptide text is derived from it. Where no end group is shown, it is not given here. [ ]: non-standard residue; d: D form. The star is where a group is joined. For = O=C*

Key:
[1] = biological target: T1, Hs_FPR1 (Homo sapiens, UniProt P21462); assay: BRET receptor-RLuc8 interaction with Venus-mGsi; type: cell-based; conditions: for Log EC50 (M): log of EC50, HEK293 transient, 10 min; for Log EC50 (M) / Emax (%): mGsi BRET, mean, ND = no interaction detected; for Emax (%): % of response to 1 μM WKYMVm
T1 construct: expressed in transfected cells
T1 sequence (P21462 1-350): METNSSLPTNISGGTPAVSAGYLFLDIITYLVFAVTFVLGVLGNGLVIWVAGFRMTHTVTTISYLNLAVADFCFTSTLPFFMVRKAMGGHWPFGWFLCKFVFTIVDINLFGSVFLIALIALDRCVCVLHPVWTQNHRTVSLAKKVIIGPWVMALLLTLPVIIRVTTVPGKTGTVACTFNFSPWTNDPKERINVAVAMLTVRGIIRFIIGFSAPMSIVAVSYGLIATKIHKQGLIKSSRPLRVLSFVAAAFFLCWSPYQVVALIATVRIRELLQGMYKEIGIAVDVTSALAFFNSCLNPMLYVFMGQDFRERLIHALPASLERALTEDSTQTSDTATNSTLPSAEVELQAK
In short: (§1)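 RLuc8-fused FPR donor with Venus-mGsi or YFP-Arrestin 3 acceptor (1:4), transient; replate 24 h, grow 24–48 h. HBSS 30 min, coelenterazine h 5 μM final 5 min pre-compound, then 10 min 37 °C.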

[2] = biological target: T2, Mm_Fpr2 (Mus musculus, UniProt O88536); assay: BRET receptor-RLuc8 interaction with Venus-mGsi; type: cell-based; conditions: for Log EC50 (M): log of EC50, HEK293 transient, 10 min; for Log EC50 (M) / Emax (%): mGsi BRET, mean, ND = no interaction detected; for Emax (%): % of response to 1 μM WKYMVm
T2 construct: expressed in transfected cells
T2 sequence (O88536 1-351): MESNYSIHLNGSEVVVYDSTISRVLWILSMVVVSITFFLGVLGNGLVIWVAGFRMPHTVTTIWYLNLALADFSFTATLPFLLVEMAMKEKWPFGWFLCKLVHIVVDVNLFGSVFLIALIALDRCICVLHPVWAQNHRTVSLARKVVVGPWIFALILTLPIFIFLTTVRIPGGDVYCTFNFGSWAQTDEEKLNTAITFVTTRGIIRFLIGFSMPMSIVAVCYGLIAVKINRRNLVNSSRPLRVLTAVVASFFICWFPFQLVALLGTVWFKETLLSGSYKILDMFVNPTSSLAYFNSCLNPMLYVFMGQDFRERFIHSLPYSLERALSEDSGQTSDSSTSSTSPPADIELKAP
In short: as §1

[3] = biological target: T3, Mm_Fpr1 (Mus musculus, UniProt P33766); assay: BRET receptor-RLuc8 interaction with Venus-mGsi; type: cell-based; conditions: for Log EC50 (M): log of EC50, HEK293 transient, 10 min; for Log EC50 (M) / Emax (%): mGsi BRET, mean, ND = no interaction detected; for Emax (%): % of response to 1 μM WKYMVm
T3 construct: expressed in transfected cells
T3 sequence (P33766 1-364): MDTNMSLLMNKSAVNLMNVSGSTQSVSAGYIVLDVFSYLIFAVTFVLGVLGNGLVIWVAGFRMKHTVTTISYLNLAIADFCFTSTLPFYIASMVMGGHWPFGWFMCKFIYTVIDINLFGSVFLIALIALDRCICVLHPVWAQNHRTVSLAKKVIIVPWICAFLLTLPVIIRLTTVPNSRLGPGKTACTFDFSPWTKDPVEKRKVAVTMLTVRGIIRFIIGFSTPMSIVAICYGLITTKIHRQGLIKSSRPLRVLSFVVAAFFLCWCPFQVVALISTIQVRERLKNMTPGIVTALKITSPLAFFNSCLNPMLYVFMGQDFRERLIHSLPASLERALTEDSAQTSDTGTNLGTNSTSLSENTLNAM
In short: as §1

[4] = test system: formyl peptide receptor family (Hs_FPR1, Hs_FPR2, Mm_Fpr1, Mm_Fpr2); assay: Summary of main findings: receptor subtype selectivity and ligand bias across all readouts; set-up: species or system human and mouse; conditions: for Bias: summary grade of ligand bias relative to WKYMVm, key not given; for Notes: summary of main findings, in words
Description: To determine ligand bias, a reference ligand is required, that is, “balanced” for the pathways tested.[37] […] We then used measurements of the activity ratio (Log (Emax/EC50)) for each receptor, ligand, and pathway in an attempt to observe any ligand bias (Fig. 6).

[5] = test system: FPR2; conditions: read-out: EC50 arrestin recruitment, Pathhunter, cited from earlier work
[6] = biological target: T1, Hs_FPR1; assay: Competition binding of fluorescent WKYMVm, flow cytometry; conditions: for Log IC50 (M): log of IC50, competition with 10 nM K(5/6-FAM)-WKYMVm, HEK293 stable cells, on ice 90 min; for Log IC50 (M) / Max Comp (%): mean, ND = no competition observed; for Max Comp (%): maximum proportion of competition with 10 nM K(5/6-FAM)-WKYMVm
Protocol: (§2) Mean cell fluorescence was then measured for 5000 cells by flow cytometry using either a BD FACScalibur or BD Attune.
(§3) All data were analyzed using GraphPad Prism using the nonlinear regression log(agonist) versus response (3 parameters) function for all assays, except binding, which was analyzed using the One site-FitlogIC50 function. Bias calculations were carried out following IUPHAR guidelines as described,[27]^,[37] and data were presented as the Δ Activity ratio (Log[EmaxB/EC50B])-(Log[EmaxA/EC50A]).

[7] = biological target: T4, Hs_FPR2 (Homo sapiens, UniProt P25090); assay: as above; conditions: for Log IC50 (M): log of IC50, competition with 10 nM K(5/6-FAM)-WKYMVm, HEK293 stable cells, on ice 90 min; for Log IC50 (M) / Max Comp (%): mean, ND = no competition observed; for Max Comp (%): maximum proportion of competition with 10 nM K(5/6-FAM)-WKYMVm
T4 construct: expressed in transfected cells
T4 sequence (P25090 1-351): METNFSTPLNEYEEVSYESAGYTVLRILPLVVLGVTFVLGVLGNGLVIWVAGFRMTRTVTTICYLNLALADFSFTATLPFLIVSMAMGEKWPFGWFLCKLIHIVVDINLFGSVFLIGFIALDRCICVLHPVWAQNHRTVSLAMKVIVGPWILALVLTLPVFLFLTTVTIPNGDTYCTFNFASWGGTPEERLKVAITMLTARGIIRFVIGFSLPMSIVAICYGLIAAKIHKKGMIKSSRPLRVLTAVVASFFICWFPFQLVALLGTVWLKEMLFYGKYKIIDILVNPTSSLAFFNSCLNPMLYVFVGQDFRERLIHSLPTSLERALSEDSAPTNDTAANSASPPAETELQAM
Protocol: as §2, §3

[8] = biological target: T5, FLAG-Mm_Fpr1 C-terminally fused to Renilla Luciferase 8 (mouse, UniProt P33766 1-364); assay: cell-based or functional assay
T5 sequence (looked up): T3 sequence (P33766 1-364)

[9] = biological target: T6, FLAG-Hs_FPR1 C-terminally fused to Renilla Luciferase 8 (human, UniProt P21462 1-350); assay: cell-based or functional assay
T6 sequence (looked up): T1 sequence (P21462 1-350)

[10] = biological target: T7, FLAG-Mm_Fpr2 C-terminally fused to Renilla Luciferase 8 (mouse, UniProt O88536 1-351); assay: cell-based or functional assay
T7 sequence (looked up): T2 sequence (O88536 1-351)

[11] = biological target: T8, FLAG-Hs_FPR2 C-terminally fused to Renilla Luciferase 8 (human, UniProt P25090 1-351); assay: cell-based or functional assay
T8 sequence (looked up): T4 sequence (P25090 1-351)

In the case of `Cc1cccc(-c2oc(C)nc2C(=O)Nc2cnn(Cc3nc(C(C)(F)F)co3)n2)c1` [ACT-389949], the “Log EC50 (M)” value [1] is reported as −6.47 M, the “Emax (%)” value [1] is reported as 60.56% and the “Log EC50 (M)” value [2] is reported as −7.57 M. The “Emax (%)” value [2] was 116.06%, the “Log EC50 (M)” value [3] was −5.74 M and the “Emax (%)” value [3] was 49.76%. The Bias [4] was “No”, the EC50 ([5]; FPR2) was 20 nM and the “Log IC50 (M)” value [6] was −5.265 M. For the same molecule, the “Max Comp (%)” value [6] was 80.70%, the “Log IC50 (M)” value [7] was −7.434 M and the “Max Comp (%)” value [7] was 94.77%.

With `COc1cc(F)c([C@@H]2CNC(=O)[C@H]2NC(=O)Nc2ccccc2)c(F)c1` [BMS-986235] the EC50 [1] was 2240 nM, the Emax [1] was 7.4% and the EC50 [2] was 166 nM. The Emax [2] was 104%, the EC50 [3] was 1410 nM and the Emax [3] was 21.7%. For the same molecule, the Bias [4] was “+ (Hs_FPR2)”, the Notes [4] was “Bias against internalization” and the EC50 ([5]; Hs_FPR2) was 130 nM. For the same molecule, the IC50 [7] was 2440 nM, the “competition with K(5/6-FAM)-WKYMVm” value ([7]; at 10 μM, incomplete competition) was roughly 50% and the “Max Comp (%)” value [7] was 60.14%.

In the case of `CCCCOc1ccc(C(=O)NN2C(=O)c3ccccc3NC2c2ccc(OC)cc2)cc1` (centres unmarked) [QuinC1], the “Log EC50 (M)” value [1] is reported as −5.34 M, the “Emax (%)” value [1] is reported as 17.60% and the “Log EC50 (M)” value [2] is reported as −6.35 M. For the same molecule, the “Emax (%)” value [2] was 70.36%, the “Log EC50 (M)” value [3] was −7.49 M and the “Emax (%)” value [3] was 30.89%. For the same molecule, the Bias [4] was “No”, the Notes [4] was “Partial/weak only” and the “Log IC50 (M)” value [6] was −7.943 M. For the same molecule, the “Max Comp (%)” value [6] was 9.96%, the “Log IC50 (M)” value [7] was −7.399 M and the “Max Comp (%)” value [7] was 13.23%.

Work on `CSCC[C@H](NC(=O)[C@H](Cc1ccc(O)cc1)NC(=O)[C@H](CCCCN)NC(=O)[C@@H](N)Cc1c[nH]c2ccccc12)C(=O)N[C@H](C(=O)N[C@H](CCSC)C(N)=O)C(C)C` [WKYMVm] yielded an Emax [1] of 112%, an Emax [2] of 103% and an Emax [3] of 109%.

In the case of `CSCC[C@H](NC=O)C(=O)N[C@@H](CC(C)C)C(=O)N[C@@H](Cc1ccccc1)C(=O)N[C@@H](CCCCN)C(=O)O` [fMLFK, fMet-Leu-Phe-Lys] (For-MLFK-OH), the EC50 [1] is reported as 85.1 nM, the Emax [1] is reported as 104% and the EC50 [2] is reported as 30200 nM. For the same molecule, the Emax [2] was 82.7%, the EC50 [3] was 9550 nM and the Emax [3] was 62.9%. The IC50 [6] was 586 nM, the “Max Comp (%)” value [6] was 63.28% and the IC50 [7] was 1.47 nM. For the same molecule, the “Max Comp (%)” value [7] was 14.72%.

For LESIFRSLLFRVM [MMK1], the Bias [4] was “No”, the Notes [4] was “Only activity at Hs_FPR2” and the “Log IC50 (M)” value [6] was −10.05 M. The “Max Comp (%)” value [6] was 6.82%, the “Log IC50 (M)” value [7] was −5.88 M and the “Max Comp (%)” value [7] was 100%.

B1: WKYMVm (peptide)
peptide: WKYMV[dM]
notes: the last residue is the D form; the bought peptide is probably also an amide (surmise); source: bought: Tocris
With B1 the “BRET of receptor-RLuc8 with Venus-mGsi: Emax (% of 1 μM WKYMVm)” value (shortened to “BRET of receptor-RLuc8 … (% of 1 μM WKYMVm)”) [8] was 109%, the “BRET of receptor-RLuc8 with Venus-mGsi: Log EC50 (M)” value (“BRET … Log EC50 (M)” below) [8] was -6.69 log M and the “BRET of receptor-RLuc8 … (% of 1 μM WKYMVm)” value [9] was 112%. The “BRET of receptor-RLuc8 … (% of 1 μM WKYMVm)” value [10] was 103%, the “BRET … Log EC50 (M)” value [10] was -7.51 log M and the “BRET of receptor-RLuc8 … (% of 1 μM WKYMVm)” value [11] was 100%. The “BRET … Log EC50 (M)” value [11] was -8.11 log M.
